Key:
Type in all cases: subcellular
[1] = Splicing modulation activity at Exon E7b mRNA in human cell lysates assessed as induction of poison exon inclusion in RNA measured cells pretreated for 24 hrs followed by first 16 hrs of incubation treated with cycloheximide for 8 hrs by qPCR
[2] = Splicing modulation activity at wild type Exon 7/7b/7c/8 mRNA in human cell lysates assessed as induction of poison exon inclusion in RNA measured cells pretreated for 24 hrs followed by first 16 hrs of incubation treated with cycloheximide for 8 hrs by qPCR
[3] = Splicing modulation activity at Exon E7c mRNA in human cell lysates assessed as induction of poison exon inclusion in RNA measured cells pretreated for 24 hrs followed by first 16 hrs of incubation treated with cycloheximide for 8 hrs by qPCR
[4] = Splicing modulation activity at Exon 12c mRNA in human cell lysates assessed as induction of poison exon inclusion in RNA measured cells pretreated for 24 hrs followed by first 16 hrs of incubation treated with cycloheximide for 8 hrs by qPCR
[5] = Splicing modulation activity at wild type Exon 12/12b/12c/13 mRNA in human cell lysates assessed as induction of poison exon inclusion in RNA measured cells pretreated for 24 hrs followed by first 16 hrs of incubation treated with cycloheximide for 8 hrs by qPCR

CN(c1ncc(-c2ccc(-c3cn[nH]c3)cc2O)nn1)[C@@H]1C[C@H]2CC[C@@H](C1)N2
EC50 [1]: 39.6 nM | IC50 [2]: 150 nM | EC50 [3]: 294 nM

CN(c1ccc(-c2cc(F)c(-c3ccn(C)c(=O)c3)cc2O)nn1)[C@H]1C[C@]2(C)CCC[C@](C)(C1)N2
EC50 [4]: 238 nM | IC50 [5]: 116 nM

CNC(=O)c1ccc2cc(-c3ccc(N(C)[C@H]4C[C@]5(C)CCC[C@](C)(C4)N5)nn3)c(O)cc2n1
EC50 [4]: 46.1 nM | IC50 [5]: 54 nM | EC50 [1]: 9.3 nM | IC50 [2]: 27.6 nM | EC50 [3]: 60.2 nM

CNC(=O)/C=C/c1cc(O)c(-c2ccc(N(C)[C@H]3C[C@]4(C)CCC[C@](C)(C3)N4)nn2)cc1F
EC50 [4]: 126 nM | IC50 [5]: 162 nM | EC50 [1]: 41 nM | IC50 [2]: 99.1 nM | EC50 [3]: 310 nM

CN(c1ccc(-c2cc(F)c(-c3ccn(CF)c(=O)c3)cc2O)nn1)[C@H]1C[C@]2(C)CCC[C@](C)(C1)N2
EC50 [4]: 92.9 nM | IC50 [5]: 94.7 nM | EC50 [1]: 88 nM | IC50 [2]: 93.9 nM | EC50 [3]: 293 nM

CN(c1ccc(-c2cc(F)c(-c3cn[nH]c3)cc2O)nn1)[C@@H]1C[C@H]2CCC[C@@H](C1)N2
EC50 [1]: 168 nM | IC50 [2]: 46 nM | EC50 [3]: 162 nM
